This passage reports Km results from article PMC6218510, “Step Sizes and Rate Constants of Single-headed Cytoplasmic Dynein Measured with Optical Tweezers” (Scientific Reports, 2018).

Test [1] has as its target T1, D384GB (D384 with GFP at the linker N-terminus and BFP in AAA2) (Homo sapiens, UniProt Q14204).
T1 construct: gene DYNC1H1; Gly1288-Glu4646; N-terminal FLAG, BCCP and AcGFP kept; BFP inserted between Glu2404 and Gly2405 (AAA2); Sf9; monomer
In words: BFP-GFP FRET efficiency of linker swing against ATP, steady state. The class given is biochemical. The note with it: no microtubules; ATP-regenerating system (creatine phosphate / creatine phosphate kinase); 100 nM dynein; conformational read-out, not a turnover Km; read-out: Km^E (k1/kT).

Test [2] addresses T1, D384GB (D384 with GFP at the linker N-terminus and BFP in AAA2). In words: ATPase assay, phosphate release (EnzChek, absorbance […] nm). Type of test: biochemical. The conditions noted are these: basal, no microtubules; 25 °C; read-out: Michaelis-Menten constant.

T1 sequence (Q14204 1288-2404): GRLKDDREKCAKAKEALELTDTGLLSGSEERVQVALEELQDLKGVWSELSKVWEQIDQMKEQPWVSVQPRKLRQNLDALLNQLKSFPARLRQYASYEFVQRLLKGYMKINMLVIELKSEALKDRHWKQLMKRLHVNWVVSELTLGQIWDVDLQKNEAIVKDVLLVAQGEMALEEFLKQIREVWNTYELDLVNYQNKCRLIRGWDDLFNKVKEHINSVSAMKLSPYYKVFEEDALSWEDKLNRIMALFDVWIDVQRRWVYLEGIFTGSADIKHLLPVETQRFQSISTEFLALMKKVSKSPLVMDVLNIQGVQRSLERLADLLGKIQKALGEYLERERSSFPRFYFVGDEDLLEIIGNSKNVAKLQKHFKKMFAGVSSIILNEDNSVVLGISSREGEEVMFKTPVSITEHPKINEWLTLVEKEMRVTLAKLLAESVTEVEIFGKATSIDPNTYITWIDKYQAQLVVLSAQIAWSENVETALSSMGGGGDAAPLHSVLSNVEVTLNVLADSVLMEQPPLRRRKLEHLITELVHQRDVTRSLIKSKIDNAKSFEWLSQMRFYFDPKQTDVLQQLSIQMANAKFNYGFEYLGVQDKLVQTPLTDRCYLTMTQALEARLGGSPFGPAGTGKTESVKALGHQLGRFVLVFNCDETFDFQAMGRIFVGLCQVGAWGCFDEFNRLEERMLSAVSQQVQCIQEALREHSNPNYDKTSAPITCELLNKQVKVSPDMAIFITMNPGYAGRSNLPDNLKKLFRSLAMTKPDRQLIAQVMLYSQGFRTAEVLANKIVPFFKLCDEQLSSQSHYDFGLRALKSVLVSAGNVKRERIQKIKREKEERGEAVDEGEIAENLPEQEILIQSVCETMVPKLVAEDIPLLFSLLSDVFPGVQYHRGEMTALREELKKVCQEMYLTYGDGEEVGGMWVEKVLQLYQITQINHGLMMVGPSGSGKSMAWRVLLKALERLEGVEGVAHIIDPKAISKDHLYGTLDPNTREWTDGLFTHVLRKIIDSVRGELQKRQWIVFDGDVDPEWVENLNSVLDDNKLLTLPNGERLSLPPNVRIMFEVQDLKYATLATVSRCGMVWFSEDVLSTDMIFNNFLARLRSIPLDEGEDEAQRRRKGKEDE
T1 sequence (Q14204 2405-4646): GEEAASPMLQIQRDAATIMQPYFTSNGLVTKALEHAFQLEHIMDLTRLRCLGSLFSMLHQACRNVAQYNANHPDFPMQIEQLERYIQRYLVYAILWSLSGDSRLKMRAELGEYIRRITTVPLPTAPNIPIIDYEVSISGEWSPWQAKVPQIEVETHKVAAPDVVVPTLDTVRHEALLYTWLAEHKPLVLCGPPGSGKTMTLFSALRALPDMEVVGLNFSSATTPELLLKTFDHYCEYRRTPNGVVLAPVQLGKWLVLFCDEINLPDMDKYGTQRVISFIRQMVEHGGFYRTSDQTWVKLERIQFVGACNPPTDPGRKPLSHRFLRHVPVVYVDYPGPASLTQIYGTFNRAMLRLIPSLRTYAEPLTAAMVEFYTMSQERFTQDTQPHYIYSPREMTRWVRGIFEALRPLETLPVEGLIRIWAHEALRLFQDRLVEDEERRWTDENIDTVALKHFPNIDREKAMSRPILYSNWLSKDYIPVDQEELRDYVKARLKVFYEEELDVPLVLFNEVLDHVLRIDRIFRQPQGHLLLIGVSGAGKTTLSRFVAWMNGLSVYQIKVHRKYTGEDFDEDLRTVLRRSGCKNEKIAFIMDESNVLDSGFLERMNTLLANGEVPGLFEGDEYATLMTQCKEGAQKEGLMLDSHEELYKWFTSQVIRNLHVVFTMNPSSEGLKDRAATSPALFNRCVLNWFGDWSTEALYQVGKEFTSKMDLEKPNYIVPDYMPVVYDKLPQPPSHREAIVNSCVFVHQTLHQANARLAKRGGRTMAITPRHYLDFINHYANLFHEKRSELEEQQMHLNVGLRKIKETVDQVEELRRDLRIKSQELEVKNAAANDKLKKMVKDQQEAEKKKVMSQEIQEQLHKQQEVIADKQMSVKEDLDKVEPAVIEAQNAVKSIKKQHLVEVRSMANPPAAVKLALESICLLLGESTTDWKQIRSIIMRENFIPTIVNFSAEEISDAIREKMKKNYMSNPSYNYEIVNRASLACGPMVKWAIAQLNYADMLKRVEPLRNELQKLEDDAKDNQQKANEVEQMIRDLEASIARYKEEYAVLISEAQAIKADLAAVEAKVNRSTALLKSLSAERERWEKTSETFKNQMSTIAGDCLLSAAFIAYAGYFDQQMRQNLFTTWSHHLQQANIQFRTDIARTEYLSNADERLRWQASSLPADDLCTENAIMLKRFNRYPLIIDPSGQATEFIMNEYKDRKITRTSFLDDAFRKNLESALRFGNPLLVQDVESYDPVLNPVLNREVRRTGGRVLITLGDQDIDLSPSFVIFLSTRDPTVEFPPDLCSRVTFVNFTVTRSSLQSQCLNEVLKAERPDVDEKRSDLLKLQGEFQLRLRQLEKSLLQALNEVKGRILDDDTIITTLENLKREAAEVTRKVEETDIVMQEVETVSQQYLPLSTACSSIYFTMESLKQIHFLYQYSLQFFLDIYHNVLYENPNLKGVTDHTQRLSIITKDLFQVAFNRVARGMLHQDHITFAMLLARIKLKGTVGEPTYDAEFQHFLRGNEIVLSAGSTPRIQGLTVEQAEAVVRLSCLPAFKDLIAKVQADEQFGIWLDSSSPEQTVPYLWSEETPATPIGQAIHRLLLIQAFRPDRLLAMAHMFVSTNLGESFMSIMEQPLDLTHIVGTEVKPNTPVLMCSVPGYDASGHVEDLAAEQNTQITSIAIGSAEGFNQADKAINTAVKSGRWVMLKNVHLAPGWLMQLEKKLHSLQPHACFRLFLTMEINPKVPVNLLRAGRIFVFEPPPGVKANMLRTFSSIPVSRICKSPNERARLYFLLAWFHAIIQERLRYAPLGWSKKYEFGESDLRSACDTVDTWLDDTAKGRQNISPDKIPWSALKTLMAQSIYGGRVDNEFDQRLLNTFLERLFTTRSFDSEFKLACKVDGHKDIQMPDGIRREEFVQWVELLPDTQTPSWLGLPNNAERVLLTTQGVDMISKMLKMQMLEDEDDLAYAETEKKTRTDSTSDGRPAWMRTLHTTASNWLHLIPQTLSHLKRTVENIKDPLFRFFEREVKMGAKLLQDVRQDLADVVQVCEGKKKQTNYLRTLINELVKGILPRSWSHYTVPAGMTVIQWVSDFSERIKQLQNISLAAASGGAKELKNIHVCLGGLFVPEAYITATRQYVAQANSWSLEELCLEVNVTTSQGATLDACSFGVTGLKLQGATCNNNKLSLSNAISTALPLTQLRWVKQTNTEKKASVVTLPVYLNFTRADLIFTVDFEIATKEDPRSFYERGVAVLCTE

Regarding `Nc1ncnc2c1ncn2[C@@H]1O[C@H](COP(=O)(O)OP(=O)(O)OP(=O)(O)O)[C@@H](O)[C@H]1O` [ATP], the Km in test [1] came to 3.3 ± 0.3 µM; in test [2], 27 ± 3 µM.
